# In patent US20200361914A1, “SUBSTITUTED BENZENE AND 6,5-FUSED BICYCLIC HETEROARYL COMPOUNDS” (Epizyme, Inc., priority 2014, published 2020):
# pIC50: −log10 of the molar value. Like-named read-outs stand apart in the source and are kept apart here.
# Experiments:
# [1] = system: H3K27 trimethylation in WSU-DLCL2 cells; assay: WSU-DLCL2 methylation assay (H3K27me3 ELISA); assay type: cell-based, Human; conditions: H3K27me3 normalised to total H3, read-out: EZH2 WSU ELISA IC50
# Excerpt: WSU-DLCL2 Methylation Assay
# WSU-DLCL2 suspension cells are purchased from DSMZ (German Collection of Microorganisms and Cell Cultures, Braunschweig, Germany). RPMI/Glutamax Medium, Penicillin-Streptomycin, Heat Inactivated Fetal Bovine Serum, and D-PBS were purchased from Life Technologies, Grand Island, N.Y., USA. Extraction Buffer and Neutralization Buffer (5×) were purchased from Active Motif, Carlsbad, Calif., USA. Rabbit anti-Histone H3 antibody is purchased from Abcam, Cambridge, Mass., USA. Rabbit anti-H3K27me3 and HRP-conjugated anti-rabbit-IgG are purchased from Cell Signaling Technology, Danvers, Mass., USA. TMB “Super Sensitive” substrate is sourced from BioFX Laboratories, Owings Mills, Md., USA. IgG-free Bovine Serum Albumin is purchased from Jackson ImmunoResearch, West Grove, Pa., USA. PBS with Tween (10×PBST) was purchased from KPL, Gaithersburg, Md., USA. Sulfuric Acid is purchased from Ricca Chemical, Arlington, Tex., USA. Immulon ELISA plates were purchased from Thermo, Rochester, N.Y., USA. V-bottom cell culture plates are purchased from Corning Inc., Corning, N.Y., USA.V-bottom polypropylene plates were purchased from Greiner Bio-One, Monroe, N.C., USA.
# WSU-DLCL2 suspension cells are maintained in growth medium (RPMI 1640 supplemented with 10% v/v heat inactivated fetal bovine serum and 100 units/mL penicillin-streptomycin) and cultured at 37° C. under 5% CO2. Under assay conditions, cells are incubated in Assay Medium (RPMI 1640 supplemented with 20% v/v heat inactivated fetal bovine serum and 100 units/mL penicillin-streptomycin) at 37° C. under 5% CO2 on a plate shaker.
# WSU-DLCL2 cells are seeded in assay medium at a concentration of 50,000 cells per mL to a 96-well V-bottom cell culture plate with 200 μL per well. Compound (1 μL) from 96 well source plates is added directly to V-bottom cell plate. Plates are incubated on a titer-plate shaker at 37° C., 5% CO2 for 96 hours. After four days of incubation, plates are spun at 241×g for five minutes and medium was aspirated gently from each well of cell plate without disturbing cell pellet. Pellet is resuspended in 200 μL DPBS and plates are spun again at 241×g for five minutes. The supernatant is aspirated and cold (4° C.) Extraction buffer (100 μL) is added per well. Plates are incubated at 4° C. on orbital shaker for two hours. Plates are spun at 3427×g x 10 minutes. Supernatant (80 μL per well) is transferred to its respective well in 96 well V-bottom polypropylene plate. Neutralization Buffer 5×(20 μL per well) is added to V-bottom polypropylene plate containing supernatant. V-bottom polypropylene plates containing crude histone preparation (CHP) are incubated on orbital shaker x five minutes. Crude Histone Preparations are added (2 μL per well) to each respective well into duplicate 96 well ELISA plates containing 100 μL Coating Buffer (1×PBS+BSA 0.05% w/v). Plates are sealed and incubated overnight at 4° C. The following day, plates were washed three times with 300 μL per well 1×PBST. Wells are blocked for two hours with 300 μL per well ELISA Diluent ((PBS (1×) BSA (2% w/v) and Tween20 (0.05% v/v)). Plates are washed three times with 1×PBST. For the Histone H3 detection plate, 100 μL per well are added of anti-Histone-H3 antibody (Abcam, ab1791) diluted 1:10,000 in ELISA Diluent. For H3K27 trimethylation detection plate, 100 μL per well are added of anti-H3K27me3 diluted 1:2000 in ELISA diluent. Plates are incubated for 90 minutes at room temperature. Plates are washed three times with 300 μL 1×PBST per well. For Histone H3 detection, 100 μL of HRP-conjugated anti-rabbit IgG antibody diluted to 1:6000 in ELISA diluent is added per well. For H3K27me3 detection, 100 μL of HRP conjugated anti-rabbit IgG antibody diluted to 1:4000 in ELISA diluent is added per well. Plates are incubated at room temperature for 90 minutes. Plates are washed four times with 1×PBST 300 μL per well. TMB substrate 100 μL is added per well. […]
# [2] = molecular target: Y641 mutant PRC2 enzyme (EZH2 Y641) (Homo sapiens, UniProt Q15910, Y641F); assay: PRC2 enzyme assay on peptide substrate, Y641 mutant EZH2
# Excerpt: (§1) S-adenosylmethionine (SAM), S-adenosylhomocyteine (SAH), bicine, KCl, Tween20, dimethylsulfoxide (DMSO) and bovine skin gelatin (BSG) can be purchased from Sigma-Aldrich at the highest level of purity possible. Dithiothreitol (DTT) was purchased from EMD. ^3H-SAM can be purchased from American Radiolabeled Chemicals with a specific activity of 80 C1/mmol. 384-well streptavidin Flashplates can be purchased from PerkinElmer.
# (§2) Recombinant PRC2 Enzymes. Human PRC2 enzymes are purified as 4-component enzyme complexes co-expressed in Spodoptera frugiperda (sf9) cells using a baculovirus expression system. […] The EED subunit contains an N-terminal FLAG tag that is used to purify the entire 4-component complex from sf9 cell lysates. The purity of the complexes meets or exceeds 95% as determined by SDS-PAGE and Agilent Bioanalyzer analysis.
# (§3) General Procedure for PRC2 Enzyme Assays on Peptide Substrates. The assays are all performed in a buffer consisting of 20 mM bicine (pH=7.6), 0.5 mM DTT, 0.005% BSG and 0.002% Tween20, prepared on the day of use. […] DMSO (1 μL) is added to columns 11, 12, 23, 24, rows A-H for the maximum signal control, and SAH, a known product and inhibitor of PRC2 (1 μL) is added to columns 11, 12, 23, 24, rows I-P for the minimum signal control. A cocktail (40 μL) containing the wild-type PRC2 enzyme and H3K27me0 peptide or any of the Y641 mutant enzymes and H3K27me2 peptide is added by Multidrop Combi (Thermo). The compounds are allowed to incubate with PRC2 for 30 min at 25° C., then a cocktail (10 μL) containing a mixture of non-radioactive and ^3H-SAM is added to initiate the reaction (final volume=51 μL). […] The assays are stopped by the addition of non-radioactive SAM (10 μL) to a final concentration of 600 μM, which dilutes the ^3H-SAM to a level where its incorporation into the peptide substrate is no longer detectable. 50 μL of the reaction in the 384-well polypropylene plate is then transferred to a 384-well Flashplate and the biotinylated peptides are allowed to bind to the streptavidin surface for at least 1h before being washed three times with 0.1% Tween20 in a Biotek ELx405 plate washer. The plates are then read in a PerkinElmer TopCount platereader to measure the quantity of ^3H-labeled peptide bound to the Flashplate surface, measured as disintegrations per minute (dpm) or alternatively, referred to as counts per minute (cpm).
# (§4) Where dpm=disintegrations per minute, cmpd=signal in assay well, and min and max are the respective minimum and maximum signal controls.
# (§5) Where top and bottom are the normally allowed to float, but may be fixed at 100 or 0 respectively in a 3-parameter fit. The Hill Coefficient normally allowed to float but may also be fixed at 1 in a 3-parameter fit. Y is the % inhibition and X is the compound concentration.
# [3] = molecular target: wild-type PRC2 enzyme (EZH2 WT) (Homo sapiens, UniProt Q15910); assay: PRC2 enzyme assay on peptide substrate, wild-type EZH2
# Excerpt: as §1, §2, §3, §4, §5
# [4] = Homo sapiens, WSUDLCL2, 96 h, 96 hours incubation
# [5] = Homo sapiens, WSUDLCL2, 96 hours incubation
# Sequence of wild-type PRC2 enzyme (EZH2 WT) (Q15910 whole entry): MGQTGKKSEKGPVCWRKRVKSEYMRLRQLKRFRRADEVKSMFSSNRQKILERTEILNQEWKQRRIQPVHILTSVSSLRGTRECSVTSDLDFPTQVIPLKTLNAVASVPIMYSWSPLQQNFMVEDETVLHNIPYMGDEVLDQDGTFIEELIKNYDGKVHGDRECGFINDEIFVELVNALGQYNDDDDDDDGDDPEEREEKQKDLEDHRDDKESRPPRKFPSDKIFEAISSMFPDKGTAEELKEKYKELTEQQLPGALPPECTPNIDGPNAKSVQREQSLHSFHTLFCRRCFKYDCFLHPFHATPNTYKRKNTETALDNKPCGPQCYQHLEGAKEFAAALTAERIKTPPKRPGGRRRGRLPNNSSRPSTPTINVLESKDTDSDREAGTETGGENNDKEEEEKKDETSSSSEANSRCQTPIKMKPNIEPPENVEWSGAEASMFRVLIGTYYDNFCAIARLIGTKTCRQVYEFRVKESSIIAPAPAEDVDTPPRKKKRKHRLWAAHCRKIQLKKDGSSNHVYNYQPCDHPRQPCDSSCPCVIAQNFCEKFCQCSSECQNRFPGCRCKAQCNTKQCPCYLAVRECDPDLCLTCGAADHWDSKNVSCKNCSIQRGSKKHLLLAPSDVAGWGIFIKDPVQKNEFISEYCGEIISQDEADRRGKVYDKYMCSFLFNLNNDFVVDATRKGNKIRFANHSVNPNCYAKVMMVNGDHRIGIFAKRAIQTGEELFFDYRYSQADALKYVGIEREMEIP
# Sequence of wild-type PRC2 enzyme (EZH2 WT) (O75530 whole entry partner): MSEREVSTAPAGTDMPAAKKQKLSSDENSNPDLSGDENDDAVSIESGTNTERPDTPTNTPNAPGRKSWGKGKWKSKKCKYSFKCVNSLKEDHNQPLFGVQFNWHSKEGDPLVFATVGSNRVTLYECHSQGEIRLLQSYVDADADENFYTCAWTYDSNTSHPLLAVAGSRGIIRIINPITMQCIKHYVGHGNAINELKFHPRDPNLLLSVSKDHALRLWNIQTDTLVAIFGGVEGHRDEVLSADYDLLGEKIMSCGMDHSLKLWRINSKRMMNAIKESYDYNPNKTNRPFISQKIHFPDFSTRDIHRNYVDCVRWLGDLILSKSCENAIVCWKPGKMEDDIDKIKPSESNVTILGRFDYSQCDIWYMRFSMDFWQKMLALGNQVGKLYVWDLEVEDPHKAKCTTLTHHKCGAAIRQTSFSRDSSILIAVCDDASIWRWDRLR
# Sequence of wild-type PRC2 enzyme (EZH2 WT) (Q15022 whole entry partner): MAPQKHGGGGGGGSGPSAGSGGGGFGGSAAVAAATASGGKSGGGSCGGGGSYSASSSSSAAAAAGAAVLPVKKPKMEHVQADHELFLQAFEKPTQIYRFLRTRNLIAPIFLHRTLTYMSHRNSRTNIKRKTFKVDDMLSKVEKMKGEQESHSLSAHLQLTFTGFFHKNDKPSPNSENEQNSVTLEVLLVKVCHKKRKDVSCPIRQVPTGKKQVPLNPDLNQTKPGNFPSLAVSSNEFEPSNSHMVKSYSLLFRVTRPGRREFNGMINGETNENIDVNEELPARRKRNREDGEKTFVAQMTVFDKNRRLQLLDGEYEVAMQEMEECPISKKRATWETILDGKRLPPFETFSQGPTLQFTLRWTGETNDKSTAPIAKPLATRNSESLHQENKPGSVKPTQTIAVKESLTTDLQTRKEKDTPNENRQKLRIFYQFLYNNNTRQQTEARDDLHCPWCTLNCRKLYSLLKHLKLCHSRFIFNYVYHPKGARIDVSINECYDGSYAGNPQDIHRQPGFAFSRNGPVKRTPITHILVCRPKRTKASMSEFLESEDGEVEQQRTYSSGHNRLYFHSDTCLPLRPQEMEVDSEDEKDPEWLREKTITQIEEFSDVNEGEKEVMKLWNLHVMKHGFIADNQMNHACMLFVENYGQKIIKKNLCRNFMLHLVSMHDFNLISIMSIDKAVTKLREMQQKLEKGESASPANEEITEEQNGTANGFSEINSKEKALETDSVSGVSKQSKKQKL
# Sequence of wild-type PRC2 enzyme (EZH2 WT) (Q09028 whole entry partner): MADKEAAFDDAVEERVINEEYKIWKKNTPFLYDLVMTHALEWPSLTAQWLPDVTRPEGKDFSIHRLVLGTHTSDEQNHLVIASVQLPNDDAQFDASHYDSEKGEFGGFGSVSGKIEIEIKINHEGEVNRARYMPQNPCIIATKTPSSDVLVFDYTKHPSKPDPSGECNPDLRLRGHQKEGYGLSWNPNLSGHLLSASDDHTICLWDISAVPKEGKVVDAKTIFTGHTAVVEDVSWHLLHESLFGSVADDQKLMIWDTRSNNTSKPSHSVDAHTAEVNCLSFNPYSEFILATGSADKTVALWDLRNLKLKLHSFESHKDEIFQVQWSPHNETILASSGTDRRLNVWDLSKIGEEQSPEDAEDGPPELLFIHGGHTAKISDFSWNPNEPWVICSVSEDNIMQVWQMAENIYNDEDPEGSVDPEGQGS
# Sequence of Y641 mutant PRC2 enzyme (EZH2 Y641) (Q15910 whole entry Y641F): as the sequence (Q15910 whole entry) above, with Y641F counted along it
# Sequence of Y641 mutant PRC2 enzyme (EZH2 Y641) (O75530 whole entry partner): as the sequence (O75530 whole entry partner) above
# Sequence of Y641 mutant PRC2 enzyme (EZH2 Y641) (Q15022 whole entry partner): as the sequence (Q15022 whole entry partner) above
# Sequence of Y641 mutant PRC2 enzyme (EZH2 Y641) (Q09028 whole entry partner): as the sequence (Q09028 whole entry partner) above
SMILES,"pIC50 [1, 4]",pIC50 ([1]; 96 hours incubation),"pIC50 [1, 5]",pIC50 [2],pIC50 [3]
"Cc1cc(C)c(CNC(=O)c2c(C)n(C(C)C3CCOCC3)c3ccccc23)c(=O)[nH]1 (racemic) [compound 19, N-((4,6-dimethyl-2-oxo-1,2-dihydropyridin-3-yl)methyl)-2-methyl-1-(1-(tetrahydro-2H-pyran-4-yl)ethyl)-1H-indole-3-carboxamide]",5.00 to 6.00,–,–,–,–
"COc1cc(C)[nH]c(=O)c1CNC(=O)c1c(C)n(C(C)C2CCOCC2)c2ccccc12 (racemic) [compound 24, N-((4-methoxy-6-methyl-2-oxo-1,2-dihydropyridin-3-yl)methyl)-2-methyl-1-(1-(tetrahydro-2H-pyran-4-yl)ethyl)-1H-indole-3-carboxamide]",5.00 to 6.00,–,–,–,–
"COc1cc(C)[nH]c(=O)c1CNC(=O)c1c(C)n(C(C)C2CCOCC2)c2ccccc12 (single isomer, unassigned) [24a, N-((4-methoxy-6-methyl-2-oxo-1,2-dihydropyridin-3-yl)methyl)-2-methyl-1-(1-(tetrahydro-2H-pyran-4-yl)ethyl)-1H-indole-3-carboxamide]",–,4.30 to 5.00,–,–,–
"COc1cc(C)[nH]c(=O)c1CNC(=O)c1c(C)n(C(C)C2CCOCC2)c2ccccc12 (single isomer, unassigned) [24b, N-((4-methoxy-6-methyl-2-oxo-1,2-dihydropyridin-3-yl)methyl)-2-methyl-1-(1-(tetrahydro-2H-pyran-4-yl)ethyl)-1H-indole-3-carboxamide]",–,5.00 to 6.00,–,–,–
"Cc1cc(C)c(CNC(=O)c2ccc(C(C)Oc3ccccc3)cc2C)c(=O)[nH]1 (centres unmarked) [compound 5, N-((4,6-dimethyl-2-oxo-1,2-dihydropyridin-3-yl)methyl)-2-methyl-4-(1-phenoxyethyl)benzamide]",–,–,4.30 to 5.00,6.00 to 7.00,6.00 to 7.00
"Cc1cc(=O)c(CNC(=O)c2ccc(C(C)Oc3ccccc3)cc2C)c(C)[nH]1 (centres unmarked) [compound 6, N-((2,6-dimethyl-4-oxo-1,4-dihydropyridin-3-yl)methyl)-2-methyl-4-(1-phenoxyethyl)benzamide]",–,–,< 4.60,4.30 to 5.00,< 4.30
"Cc1cc(C)c(CNC(=O)c2cc(Cl)c(C(C)Oc3ccccc3)cc2C)c(=O)[nH]1 (centres unmarked) [compound 12, 5-chloro-N-((4,6-dimethyl-2-oxo-1,2-dihydropyridin-3-yl)methyl)-2-methyl-4-(1-phenoxyethyl)benzamide]",–,–,< 4.60,> 7.00,6.00 to 7.00
"Cc1cc(=O)c(CNC(=O)c2cc(Cl)c(Oc3cccc(-c4ccnnc4)c3C#N)cc2C)c(C)[nH]1 [compound 16, 5-chloro-4-(2-cyano-3-(pyridazin-4-yl)phenoxy)-N-((2,6-dimethyl-4-oxo-1,4-dihydropyridin-3-yl)methyl)-2-methylbenzamide]",–,–,< 4.60,–,–
"CCC(C)n1cc(C)c2c(C(=O)NCc3c(C)[nH]c(C)cc3=O)cc(-c3ccc(N4CCNCC4)nc3)cc21 (centres unmarked) [compound 25, 1-(sec-butyl)-N-((2,6-dimethyl-4-oxo-1,4-dihydropyridin-3-yl)methyl)-3-methyl-6-(6-(piperazin-1-yl)pyridin-3-yl)-1H-indole-4-carboxamide]",–,–,4.30 to 5.00,> 7.00,> 7.00
"CCN(c1cc(-c2ccc(OCCOC)cc2)cc(C(=O)NC2CC(C)(C)NC(C)(C)C2)c1C)[C@H]1CC[C@H](N(C)C)CC1 [compound 33, 5-(((trans)-4-(dimethylamino)cyclohexyl)(ethyl)amino)-4′-(2-methoxyethoxy)-4-methyl-N-(2,2,6,6-tetramethylpiperidin-4-yl)-[1,1′-biphenyl]-3-carboxamide]",–,–,< 4.60,4.30 to 5.00,4.30 to 5.00
